Assay results reported in patent publication US20140296484A1, “Cyclin Based Inhibitors of CDK2 and CDK4” (University of South Carolina, priority 2013, published 2014).
Values joined by “and” are separate entries in the source; they are usually repeats but may differ in a detail not shown here. Identical values can stand only once. Like-named read-outs stand apart in the source and are kept apart here. Each block holds one molecule with its values, some of them ahead of it. Where a SMILES comes first, the peptide text is derived from it. Where no end group is shown, it is not given here. [ ]: non-standard residue; d: D form. The star is where a group is joined. X5 = Cc1nc(C(=O)*)nn1-c1cc(Cl)cc(Cl)c1; Ala(cPent) = N[C@@H](CC1CCCC1)C(=O)O; X1 = Cc1nc(C(=O)*)nn1-c1ccc(Cl)cc1; X2 = O=C(c1ccc(-c2ccc(Cl)cc2)o1)*; 3Pal = N[C@@H](Cc1cccnc1)C(=O)O; 2Thi = N[C@@H](Cc1cccs1)C(=O)O; 3Thi = N[C@@H](Cc1ccsc1)C(=O)O; Cba = N[C@@H](CC1CCC1)C(=O)O; Picolinoyl = O=C(c1ccccn1)*; Bz = O=C(c1ccccc1)*

Key:
[1] = target: T1, CDK4/Cyclin D1 (Homo sapiens, UniProt P24385); experiment: In vitro kinase assay, 32P filter capture with GST-Rb substrate; type: biochemical; conditions: for IC50: kinase assay
T1 sequence (P24385 whole entry): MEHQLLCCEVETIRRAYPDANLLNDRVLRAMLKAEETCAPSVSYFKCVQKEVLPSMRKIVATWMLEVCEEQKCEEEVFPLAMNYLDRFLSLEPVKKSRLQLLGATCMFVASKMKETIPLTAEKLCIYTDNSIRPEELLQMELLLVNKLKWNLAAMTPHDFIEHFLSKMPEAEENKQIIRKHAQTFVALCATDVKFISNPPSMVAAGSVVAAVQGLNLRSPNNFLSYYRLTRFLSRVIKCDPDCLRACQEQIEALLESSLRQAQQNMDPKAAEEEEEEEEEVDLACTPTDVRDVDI
T1 sequence (P11802 whole entry partner): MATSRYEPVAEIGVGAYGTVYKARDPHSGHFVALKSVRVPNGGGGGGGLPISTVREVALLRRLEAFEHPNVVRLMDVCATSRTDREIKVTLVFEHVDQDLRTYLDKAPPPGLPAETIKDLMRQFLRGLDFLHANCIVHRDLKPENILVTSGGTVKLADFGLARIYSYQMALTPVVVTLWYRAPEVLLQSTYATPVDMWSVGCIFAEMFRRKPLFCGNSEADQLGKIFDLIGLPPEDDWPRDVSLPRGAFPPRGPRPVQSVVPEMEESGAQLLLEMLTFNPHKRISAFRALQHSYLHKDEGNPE

[2] = target: CDK2/cyclin A (Homo sapiens, UniProt P20248); experiment: Fluorescence polarization (FP) competitive binding assay
Description: (§1) Once the compounds were characterized, their binding affinities were tested by FP assay.

[3] = as above; conditions: Table 20; read-out: CDK2/Cyclin A IC050
Description: (§2) In order to assess the contribution of the PLA H-bond acceptor, analogous compounds were made in each series and activities for the 4-chloro and 3,5-dichloro analog were evaluated in each context.
(§3) Several additional analogs were synthesized in addition to the 3,5 dichloro and 4-chlorophenyl analogs. In addition to determining their inhibition of CDK2/cyclin A, the availability of the CDK4/cyclin D1 binding assay was exploited to develop SAR for both kinases.
as §1

[4] = target: T1, CDK4/Cyclin D1; experiment: as above
Description: as §2, §3, §1

[5] = target: CDK2/Cyclin A2 (Homo sapiens, UniProt P20248); experiment: In vitro kinase assay, 32P filter capture with GST-Rb substrate; type: biochemical
[6] = target: CDK2/E (Homo sapiens, UniProt P24864); experiment: In vitro kinase assay
[7] = system: Colo-205 human colon carcinoma xenografts; conditions: oral administration to mice bearing Colo-205 xenografts; cited from earlier work
[8] = system: retinoblastoma (Rb)-positive tumor cells; conditions: cited from earlier work
[9] = system: 36 other protein kinases; conditions: cited from earlier work
[10] = Table 10, Scaffold III N-caps on the peptide link, read-out: IC50 CDK2/A2
[11] = competitive binding (FP) assay, read-out: CDK2/Cyclin A IC50
[12] = competitive binding (FP) assay, read-out: CDK4/Cyclin D1 IC50
[13] = Table 15, read-out: CDK2/Cyclin D1 IC50

IC50 [1]: 6.7 µM
Molecule: CC(C)C[C@H](NC(=O)[C@H](CCCNC(=N)N)NC(=O)[C@H](CCCNC(=N)N)NC(=O)[C@H](CCCCN)NC(=O)[C@H](C)NC(=O)[C@@H]1CCCN1)C(=O)N[C@@H](Cc1ccccc1)C(=O)NCC(N)=O

IC50 [2, 10]: 16.7 µM
Molecule: 5919 (RLIF) [compound 5919]

IC50 [2, 10]: 5.86 µM
Molecule: 5920 (RLIF; also: OH in table column, meaning not given here) [compound 5920]

IC50 [2, 10]: 6.04 µM and 6.6 µM
Molecule: 5921 (RLIF; also: C7H16N2 group attached) [compound 5921]

IC50 [3]: > 180 µM | IC50 [2, 11]: > 180 µM
Molecule: COc1ccccc1CC(CC(C)C)NC(=O)C(CCCCNC(=N)N)NC(=O)c1nc(C)n(-c2cc(Cl)cc(Cl)c2)n1 (single isomer, unassigned) [compound 5981]

IC50 ([4]; Table 11, value tagged (LIF) (0321), read-out: IC50 CDK4/D1 (LIF) (0321)): 49 µM | IC50 ([4]; Table 11, value tagged (LIF), read-out: IC50 CDK4/D1 (LIF)): 64 µM | IC50 ([2]; Table 11, value tagged (LIF), read-out: IC50 CDK2/A2 (LIF)): 94.3 ± 14.9 µM
Molecule: CC[C@H](C)[C@H](NC(=O)[C@H](CC(C)C)NC(=O)[C@H](CCCNC(=N)N)NC(=O)c1ccccn1)C(=O)N[C@@H](Cc1ccccc1)C(=O)O [525 (RLIF form)] (Picolinoyl-RLIF-OH)

IC50 [1]: 179 µM
Molecule: CC[C@H](C)[C@H](NC(=O)[C@H](CC(C)C)NC(=O)[C@H](CCCNC(=N)N)NC(=O)[C@@H](N)CCCNC(N)=O)C(=O)N[C@@H](Cc1ccccc1)C(N)=O [CitRLIF, Cit-RLIF]

IC50 [5]: 6.1 µM | IC50 [6]: 1.3 µM
Molecule: CC[C@H](C)[C@H](NC(=O)[C@H](CC(C)C)NC(=O)[C@H](CCCNC(=N)N)NC(=O)[C@H](CCCNC(=N)N)NC(=O)[C@H](CCCCN)NC(=O)[C@H](C)NC(=O)[C@@H](N)Cc1c[nH]cn1)C(=O)N[C@@H](Cc1ccco1)C(N)=O [HAKRRLIX1]

IC50 [5]: 3.6 µM
Molecule: CC[C@H](C)[C@H](NC(=O)[C@H](CC(C)C)NC(=O)[C@H](CCCNC(=N)N)NC(=O)[C@H](CCCNC(=N)N)NC(=O)[C@H](CCCCN)NC(=O)[C@H](C)NC(=O)[C@@H](N)Cc1c[nH]cn1)C(=O)N[C@@H](Cc1cccs1)C(N)=O [HAKRRLIX2] (H-HAKRRLI[2Thi]-NH2)

IC50 [5]: 25 µM
Molecule: CC[C@H](C)[C@H](NC(=O)[C@H](CC(C)C)NC(=O)[C@H](CCCNC(=N)N)NC(=O)[C@H](CCCNC(=N)N)NC(=O)[C@H](CCCCN)NC(=O)[C@H](C)NC(=O)[C@@H](N)Cc1c[nH]cn1)C(=O)N[C@@H](Cc1ccsc1)C(N)=O [HAKRRLIX3] (H-HAKRRLI[3Thi]-NH2)

IC50 [1]: 100 µM | IC50 [5]: 25 µM
Molecule: CC[C@H](C)[C@H](NC(=O)[C@H](CC(C)C)NC(=O)[C@H](CCCNC(=N)N)NC(=O)[C@H](CCCNC(=N)N)NC(=O)[C@H](CCCCN)NC(=O)[C@H](C)NC(=O)[C@@H](N)Cc1c[nH]cn1)C(=O)N[C@@H](CC1CCC1)C(N)=O [HAKRRLIX4] (H-HAKRRLI[Cba]-NH2)

IC50 [1]: 90 µM | IC50 [5]: 20 µM
Molecule: CC[C@H](C)[C@H](NC(=O)[C@H](CC(C)C)NC(=O)[C@H](CCCNC(=N)N)NC(=O)[C@H](CCCNC(=N)N)NC(=O)[C@H](CCCCN)NC(=O)[C@H](C)NC(=O)[C@@H](N)Cc1c[nH]cn1)C(=O)N[C@@H](CC1CCCC1)C(N)=O [HAKRRLIX5] (H-HAKRRLI[Ala(cPent)]-NH2)

IC50 [5]: 29 µM
Molecule: CC[C@H](C)[C@H](NC(=O)[C@H](CC(C)C)NC(=O)[C@H](CCCNC(=N)N)NC(=O)[C@H](CCCNC(=N)N)NC(=O)[C@H](CCCCN)NC(=O)[C@H](C)NC(=O)[C@@H](N)Cc1c[nH]cn1)C(=O)N[C@@H](Cc1cccnc1)C(N)=O [HAKRRLIX7] (H-HAKRRLI[3Pal]-NH2)

binding in the FP assay ([2]; cyclin not specified (Cyclin A and D1 expected)): weakly binding
Molecule: N=C(N)NCCCC(NC(=O)c1ccccc1)C(=O)Nc1ccc2ccccc2c1 (stereo not drawn) [N-(5-guanidino-1-(naphthalen-2-ylamino)-1-oxopentan-2-yl)benzamide]

Molecule: CC(=O)c1c(C)c2cnc(Nc3ccc(N4CCNCC4)cn3)nc2n(C2CCCC2)c1=O [PD0332991]
tumor response [7]: marked tumor regression | antiproliferative activity [8]: potent antiproliferative agent | activity against 36 other protein kinases [9]: no activity

IC50 [1]: 179 µM
Molecule: CC[C@H](C)[C@H](NC(=O)[C@H](CC(C)C)NC(=O)[C@H](CCCNC(N)=O)NC(=O)[C@@H](N)CCCNC(=N)N)C(=O)N[C@@H](Cc1ccccc1)C(N)=O [RCitLIF]

Molecule: CC[C@H](C)[C@H](NC(=O)[C@H](CC(C)C)NC(=O)[C@H](CCCNC(=N)N)NC(=O)c1nc(C)n(-c2cc(Cl)cc(Cl)c2)n1)C(=O)NCc1cccc(Oc2ccccc2)c1 [SCCP10]
IC50 [1]: 8 µM

Molecule: CC(C)C[C@@H](CC(=O)NCc1cccc(Oc2ccccc2)c1)NC(=O)[C@H](CCCNC(=N)N)NC(=O)[C@@H](N)CCCNC(=N)N [SCCP 5624, Arg-Arg-β-homoleucyl-3-phenoxybenzylamid]
selectivity ([1]; CDK4/cyclin D1 vs CDK2/cyclin A): selective for CDK4/cyclin D1

fold less potent relative to the triazole N capping group ([4]; CDK4/cyclin D1 context): 25 fold
Molecule: CC[C@H](C)[C@H](NC(=O)[C@H](CC(C)C)NC(=O)[C@H](CCCNC(=N)N)NC(=O)c1ccc(-c2ccc(Cl)cc2)o1)C(=O)N[C@@H](Cc1ccccc1)C(=O)O [SCCP 5770] (X2-RLIF-OH)

IC50 [4, 12]: 27 µM | IC50 [2, 11]: 12 µM
Molecule: CC[C@H](C)[C@H](NC(=O)[C@H](CC(C)C)NC(=O)[C@H](CCCNC(=N)N)NC(=O)c1nc(C)n(-c2cc(Cl)cc(Cl)c2)n1)C(=O)N[C@@H](Cc1ccccc1)C(=O)O [SCCP 5773, 1-(3,5-dichlorophenyl)-5-methyl-1H-1,2,4-triazole-3-carbonyl-RLIF] (X5-RLIF-OH)

IC50 [4, 12]: 11 µM | IC50 [2, 11]: 25 µM
Molecule: CC[C@H](C)[C@H](NC(=O)[C@H](CC(C)C)NC(=O)[C@H](CCCNC(=N)N)NC(=O)c1nc(C)n(-c2ccc(Cl)cc2)n1)C(=O)N[C@@H](Cc1ccccc1)C(=O)O [SCCP 5774] (X1-RLIF-OH)

IC50 [2, 11]: 85.6 µM
Molecule: CCN(CCc1ccccc1)C(=O)CC(CC(C)C)NC(=O)[C@H](CCCNC(=N)N)NC(=O)c1nc(C)n(-c2cc(Cl)cc(Cl)c2)n1 (stereo partly drawn) [SCCP 6003]

IC50 [2, 11]: 57.7 µM
Molecule: Cc1nc(C(=O)N[C@@H](CCCNC(=N)N)C(=O)NC(CC(C)C)C(=O)NCCCc2ccccc2)nn1-c1cc(Cl)cc(Cl)c1 (stereo partly drawn) [SCCP 6004]

Molecule: CC[C@H](C)[C@H](NC(=O)[C@H](CC(C)C)NC(=O)[C@H](CCCNC(=N)N)NC(=O)c1ccccc1)C(=O)N[C@@H](Cc1ccccc1)C(N)=O [compound 5857] (Bz-RLIF-NH2)
IC50 [4]: 100 to 180 µM | IC50 [2]: > 100 µM

IC50 [3]: > 180 µM | IC50 [2, 11]: > 180 µM
Molecule: Cc1nc(C(=O)NC(CCCCNC(=N)N)C(=O)NC(CC(C)C)c2ccccc2OCC(C)C)nn1-c1cc(Cl)cc(Cl)c1 (stereo not drawn) [compound 5978]

IC50 [3]: > 180 µM | IC50 [2, 11]: > 180 µM
Molecule: CCCOc1ccc(C)cc1C(CC(C)C)NC(=O)C(CCCCNC(=N)N)NC(=O)c1nc(C)n(-c2cc(Cl)cc(Cl)c2)n1 (stereo not drawn) [compound 5980]

IC50 [3]: > 180 µM | IC50 [2, 11]: > 180 µM
Molecule: COc1ccccc1CC(CC(C)C)NC(=O)C(CCCCNC(=N)N)NC(=O)c1nc(C)n(-c2cc(Cl)cc(Cl)c2)n1 (stereo not drawn) [compound 5982]

IC50 [3]: > 180 µM | IC50 [2, 11]: > 180 µM
Molecule: CCOc1ccccc1C(CC(C)C)NC(=O)C(CCCCNC(=N)N)NC(=O)c1nc(C)n(-c2cc(Cl)cc(Cl)c2)n1 (stereo not drawn) [compound 5984]

IC50 [3]: > 180 µM | IC50 [2, 11]: > 180 µM
Molecule: COc1ccccc1C(CC(C)C)NC(=O)C(CCCCNC(=N)N)NC(=O)c1nc(C)n(-c2cc(Cl)cc(Cl)c2)n1 (stereo not drawn) [compound 5985]

IC50 [4, 13]: > 180 µM | IC50 [2, 11]: > 180 µM
Molecule: Cc1nc(C(=O)N[C@@H](CCCNC(=N)N)C(=O)NC(CC(=O)NCc2ccccc2)CC(C)C)nn1-c1cc(Cl)cc(Cl)c1 (stereo partly drawn) [compound 6000]

IC50 [4, 13]: > 180 µM | IC50 [2, 11]: > 180 µM
Molecule: CCN(Cc1ccccc1)C(=O)CC(CC(C)C)NC(=O)[C@H](CCCNC(=N)N)NC(=O)c1nc(C)n(-c2cc(Cl)cc(Cl)c2)n1 (stereo partly drawn) [compound 6001]

IC50 [4, 13]: > 180 µM | IC50 [2, 11]: > 180 µM
Molecule: Cc1nc(C(=O)N[C@@H](CCCNC(=N)N)C(=O)NC(CC(=O)NCCc2ccccc2)CC(C)C)nn1-c1cc(Cl)cc(Cl)c1 (stereo partly drawn) [compound 6002]

IC50 [4, 13]: > 180 µM
Molecule: CCN(CCc1ccccc1)C(=O)CC(CC(C)C)NC(=O)[C@H](CCCNC(=N)N)NC(=O)c1nc(C)n(-c2cc(Cl)cc(Cl)c2)n1 (stereo partly drawn) [compound 6003]

IC50 [4, 13]: > 180 µM | IC50 [2, 11]: 57.7 µM
Molecule: Cc1nc(C(=O)NC(CCCNC(=N)N)C(=O)NC(CC(C)C)C(=O)NCCCc2ccccc2)nn1-c1cc(Cl)cc(Cl)c1 (stereo not drawn) [compound 6004]

IC50 [4, 13]: > 180 µM | IC50 [2, 11]: > 180 µM
Molecule: CCN(CCCc1ccccc1)C(=O)C(CC(C)C)NC(=O)[C@H](CCCNC(=N)N)NC(=O)c1nc(C)n(-c2cc(Cl)cc(Cl)c2)n1 (stereo partly drawn) [compound 6005]

IC50 [1]: 25 µM | IC50 [5]: 50 µM
Molecule: H-HAKTRLIF-NH2

IC50 [1]: 68 µM
Molecule: H-SAKRALFGM-NH2

IC50 [1]: 146 µM
Molecule: H-SAKRNLFGM-NH2
